Test results as given in US8802138B2, “Methods and compositions for improved deliver, expression or activity of RNA interference agents” (priority 2009, dated 2014).
“Also recorded” adds a separate entry of the source.

Experiments:
[1] = system: Hs766T, MCF7 and PC3 cells; assay: siGLO release after pretreatment with enabler agent, confocal fluorescence microscopy; assay type: cell-based, human; conditions: agent 4 hours, then liposomal siGLO (DC-RNAi) 6 hours
Procedure: (§1) The effectiveness of RIDES in enhancing the intracellular bioavailability of RNAi (i.e., promoting the delivery of RNAi to the cytosol and the release of RNAi from liposomes, endosomes or lysosomes) was studied by monitoring the intracellular trafficking and locations of lipid vectors and RNAi using confocal fluorescence microscopy. […] For monitoring the location of liposomes, rodamine-labeled lipids (red fluorescence) was added to the liposome during liposome preparation. Internalization of siGLO-containing liposomes into the cytosol of a cell yields punctuated red and green fluorescence signals.
Three studies were conducted using siGLO as the RNAi. The lipid vector was the DC liposomes. The study was performed in one or more of three human tumor cell lines, i.e., pancreatic Hs766T, breast cancer MCF7, and prostate cancer PC3.
The first study evaluated the effects of pretreatment with enabler agents. […] Additional cytotoxic agents not acting through tubulin interaction or topoisomerase inhibition, i.e., cisplatin and 5-fluorouracil, were included as side-by-side comparisons. Cells were treated with one of these agents for 4 hours, followed by incubation with liposomal siGLO for 6 hours. […] After pretreatment with enabler agent, cells were washed with cold FBS-free medium for 3 times, fixed with formalin, stained with the nucleus dye DRAQ5, and examined using confocal fluorescence microscopy. […] Because only the free siGLO (not embedded in liposomes) can enter the nucleus, the nuclear accumulation of siGLO indicates the release of RNAi from the liposomes, endosomes, or lysosomes.

[2] = system: prostate cancer PC3 cells; assay: siGLO release with concurrent enabler treatment, confocal microscopy; assay type: cell-based, human; conditions: agent concurrent with the siGLO treatment
Procedure: as §1
The study was performed in prostate cancer PC3 cells.

HS766T cells [3] = assay: Cytotoxicity of 4 hour paclitaxel treatment, MTT assay; assay type: cell-based, human; conditions: 10 nM for 4 hours
Procedure: (§2) In vivo antitumor activity was measured in tumor-bearing animals. In vitro antitumor activity was measured in cultured cells using the microtetrazolium assay (MTT). This assay measures the ability of cells to reduce the MTT dye, and is generally used as a measurement of the total cell number.

HS766T cells [4] = assay: Concentration-dependence of paclitaxel effect on siGLO transfection; assay type: cell-based, human; conditions: 10 and 50 nM for 4 hours
Procedure: as §1

[5] = system: porcine arterial smooth muscle cells; assay: Paclitaxel cytotoxicity, MTT assay, normal cells; assay type: cell-based
Procedure: as §2
(§3) This was evaluated in porcine arterial smooth muscle cells; the duration of drug treatment was 36 hours. […] Cytotoxicity was measured using the using the MTT assay.

pancreatic HS766T = assay: Paclitaxel cytotoxicity, MTT assay; assay type: cell-based, human
Procedure: as §2, §3

breast MCF7 cells = assay: Paclitaxel cytotoxicity, MTT assay; assay type: cell-based, human
prostate PC3 = assay: Paclitaxel cytotoxicity, MTT assay; assay type: cell-based; conditions: Homo sapiens, read-out: 50% inhibition of IC50 (nM); PC3, 48 hours
[6] = concentration time product producing 50% cytotoxicity

| SMILES | nuclear accumulation of siGLO (release of RNAi from liposomes, endosomes or lysosomes) [1] | nuclear accumulation of siGLO [2] | further results |
| --- | --- | --- | --- |
| O=c1[nH]cc(F)c(=O)[nH]1 [5-fluorouracil] | did not change the punctated pattern of siGLO localization; also recorded: ineffective | – | – |
| N.N.[Cl][Pt][Cl] [cisplatin] | did not change the punctated pattern of siGLO localization; also recorded: ineffective | ineffective | – |
| COc1cc2c(c(OC)c1OC)-c1ccc(OC)c(=O)cc1[C@@H](NC(C)=O)CC2 [colchicine] | induced nuclear accumulation of green fluorescence signals | – | – |
| CC(=O)O[C@@]12CO[C@@H]1C[C@H](O)[C@@]1(C)C(=O)[C@H](O)C3=C(C)[C@@H](OC(=O)[C@H](O)[C@@H](NC(=O)OC(C)(C)C)c4ccccc4)C[C@@](O)([C@@H](OC(=O)c4ccccc4)[C@H]21)C3(C)C [docetaxel] | induced nuclear accumulation of green fluorescence signals | – | – |
| COc1cccc2c1C(=O)c1c(O)c3c(c(O)c1C2=O)C[C@@](O)(C(=O)CO)C[C@@H]3O[C@H]1C[C@H](N)[C@H](O)[C@H](C)O1 [doxorubicin] | induced nuclear accumulation of green fluorescence signals | – | – |
| COC(=O)Nc1nc2ccc(C(=O)c3cccs3)cc2[nH]1 [nocodazole] | induced nuclear accumulation of green fluorescence signals | extensive nuclear accumulation of siGLO | – |
| CC(=O)O[C@H]1C(=O)[C@@]2(C)[C@H]([C@H](OC(=O)c3ccccc3)[C@]3(O)C[C@H](OC(=O)[C@H](O)[C@@H](NC(=O)c4ccccc4)c4ccccc4)C(C)=C1C3(C)C)[C@]1(OC(C)=O)CO[C@@H]1C[C@@H]2O [paclitaxel] | induced nuclear accumulation of green fluorescence signals | extensive nuclear accumulation of siGLO | cytotoxicity (HS766T cells [3]): no apparent toxicity; appearance of siGLO in the nucleus (HS766T cells [4]): enhanced the appearance of siGLO in the nucleus at both concentrations; also recorded: effective; IC50 ([5]; Sus scrofa, read-out: 50% inhibition of IC50 (nM), 36 hours): 113 nM; CxT (nMxhr) [5, 6]: 4068 nMxhr; IC50 (pancreatic HS766T; Homo sapiens, read-out: 50% inhibition of IC50 (nM), 48 hours): 12.7 nM; CxT (nMxhr) (pancreatic HS766T; [6]): 610 nMxhr; IC50 (breast MCF7 cells; Homo sapiens, read-out: 50% inhibition of IC50 (nM), MCF7, 48 hours): 5.2 nM; CxT (nMxhr) (breast MCF7 cells; concentration time product producing 50% cytotoxicity, MCF7): 250 nMxhr; IC50 (prostate PC3): 15.5 nM |
| CC[C@]1(O)C[C@H]2CN(CCc3c([nH]c4ccccc34)[C@@](C(=O)OC)(c3cc4c(cc3OC)N(C=O)[C@H]3[C@@](O)(C(=O)OC)[C@H](OC(C)=O)[C@]5(CC)C=CCN6CC[C@]43[C@@H]65)C2)C1 [vincristine] | induced nuclear accumulation of green fluorescence signals | – | – |
